Data from ChEMBL document CHEMBL1156700, “Metabolic stereoselectivity of cytochrome P450 3A4 towards deoxypodophyllotoxin: In silico predictions and experimental validation” (Eur J Med Chem, 2008).

Experiments:
Type in all cases: ADME
[1] = target: T1, Cytochrome P450 3A4 (Homo sapiens, UniProt P08684); experiment: Activity of human recombinant CYP3A4 assessed as conversion of testosterone to 6-beta-hydroxytestesterone at 25 uM after 60 mins in presence of 25 uM Miconazole; details: recombinant enzyme, 1 h
[2] = target: T1, Cytochrome P450 3A4; experiment: Activity of human recombinant CYP3A4 co-expressed in Escherichia coli with human p450 NADPH reductase assessed as conversion of deoxypodophyllotoxin to epipodophyllotoxin; details: recombinant enzyme
[3] = target: T1, Cytochrome P450 3A4; experiment: Ratio of Vmax to Km for human recombinant CYP3A4; details: recombinant enzyme
[4] = target: T1, Cytochrome P450 3A4; experiment: Activity of human recombinant CYP3A4 assessed as conversion of testosterone to 6-beta-hydroxytestesterone at 25 uM after 60 mins in presence of 25 uM epipodophyllotoxin; details: recombinant enzyme, 1 h

T1 sequence (P08684 whole entry): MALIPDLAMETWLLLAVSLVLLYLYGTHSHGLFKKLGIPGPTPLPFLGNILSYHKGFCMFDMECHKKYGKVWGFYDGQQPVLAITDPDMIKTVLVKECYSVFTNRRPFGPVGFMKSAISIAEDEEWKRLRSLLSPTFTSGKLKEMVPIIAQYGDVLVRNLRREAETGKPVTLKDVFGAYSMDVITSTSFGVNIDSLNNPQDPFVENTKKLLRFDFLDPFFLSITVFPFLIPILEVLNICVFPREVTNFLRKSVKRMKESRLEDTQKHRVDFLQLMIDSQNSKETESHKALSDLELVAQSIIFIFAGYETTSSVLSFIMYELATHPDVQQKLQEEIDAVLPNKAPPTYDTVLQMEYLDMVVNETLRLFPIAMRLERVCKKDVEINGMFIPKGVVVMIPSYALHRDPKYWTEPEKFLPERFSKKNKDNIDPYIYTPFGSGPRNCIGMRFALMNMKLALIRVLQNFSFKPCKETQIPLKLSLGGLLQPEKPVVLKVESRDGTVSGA

In the case of `C[C@]12CC[C@H]3[C@@H](CCC4=CC(=O)CC[C@@]43C)[C@@H]1CC[C@@H]2O` [TESTOSTERONE], the “inhibition (INH)” value [1] is reported as 4.38%, the Km [2] is reported as 20.5 µM and the Vmax [2] is reported as 30.3 nmol/min. For the same compound, the Vmax/Km [3] was 2.5e+06 M⁻¹ s⁻¹ and the “inhibition (INH)” value [4] was 11.46%.
